Source: paper PMC4644980, “The FDA-approved natural product dihydroergocristine reduces the production of the Alzheimer’s disease amyloid-β peptides” (Scientific Reports, 2015)
pKd: −log10 of the molar value. Structures can show the parent of a compound that is named as a salt.

How the values were obtained:
γ-secretase = γ-secretase (Homo sapiens, UniProt P49768+Q92542); assay: surface plasmon resonance, γ-secretase immobilized; format: binding; design: made in house; settings: SPR, Biacore T100, NTA chip; read-out: equilibrium dissociation constant (Kd), γ-secretase
Method: A Biacore sensor Chip NTA that is designed to bind His-tagged proteins was used to immobilize γ-secretase. The SPR assay was performed in a running buffer (10 mM HEPES, 150 mM NaCl in the presence of 1% DMSO, pH 7.4). The purified His-tagged γ-secretase overexpressing human PS1, Flag-Pen-2, Aph-1a2-HA, and NCT-V5/His (see above) was diluted 6 times in DMSO-free running buffer. For each binding curve, the running buffer containing 500 μM NiCl2 was first injected to saturate the NTA chip. Then, His-tagged γ-secretase was injected and immobilized on the Ni^2+ -coated sensor chip. Compounds at the indicated concentrations were injected onto the surface of the sensor chip, and the corresponding binding spectrum was recorded. The sensor chip was regenerated with regeneration buffer (10 mM HEPES, 150 mM NaCl, 350 mM EDTA, pH 8.3). Purified human NCT (100 μg) was immobilized onto the flow cell of a CM5 sensor chip in 10 mM sodium acetate (pH 4.0) by using an amine coupling kit. The SPR assay was performed in HBS-P running buffer (10 mM HEPES, 150 mM NaCl and 0.005% surfactant P20 in the presence of 1% DMSO, pH 7.4). […] The Kd values were determined with Biacore evaluation 3.1 software.

[1] = tested on: γ-secretase subunits (mNCT, PS1-NTF); assay: Western blot of γ-secretase subunits in HEK293 or fibroblast cells; format: cell-based
Method: for 10 min before adding 25 µl of the stop solution. The fluorescence was monitored with a microplate reader (emission at 590 nm after excitation at 560 nm).
Western blot and antibodies
WT HEK293 or fibroblast cells were collected and lysed in 1% Nonidet P-40-HEPES buffer, and equal amounts of proteins [normalized by BCA (Pierce)] were separated by SDS-PAGE onto a 12% Tris-glycine gel, transferred onto a PVDF membrane (Bio-Rad, USA) and further probed with antibody CT15 (for APP/APP-CTFs, 1:2000, […]
(1:1000; Abcam, Cambridge, MA, USA) for PS1-NTF, UD-1 (for Pen-2, 1:500; a gift of Dr. Helena Karlström, Karolinska Institute, Sweden), NCT164 (for NCT, 1:1000; BD Bioscience, Bedford, MA, USA) as well as with an antibody for β-actin (1:2000, Abmart). For the analysis of Notch NICD, cell extracts were separated by SDS-PAGE onto a 10% Tris-glycine gel, transferred onto a PVDF membrane and blotted for NICD with an anti-Notch Ab1744 antibody (for the free N-terminus of NICD, 1:500, Cell Signaling Technology, Beverly, MA, USA).
Samples from in vitro γ-secretase activity assays were run on 16% Tricine-SDS-PAGE gels and transferred onto PVDF to detect Aβ and AICD-Flag with 6E10 (1:1000, Covance, Berkeley, CA, USA) and CT15 antibodies (1:5000, Sigma-Aldrich), […]

`CC(C)[C@@]1(NC(=O)[C@@H]2C[C@@H]3c4cccc5[nH]cc(c45)C[C@H]3N(C)C2)O[C@@]2(O)[C@@H]3CCCN3C(=O)[C@H](Cc3ccccc3)N2C1=O` [DHEC, Dihydroergocristine methanesulfonate salt] was tested, and the pKd (γ-secretase) was 7.59 and the “assembly and maturation of the protease complex (mNCT, PS1-NTF)” value [1] was “not altered”.
